Experimental data from PubChem BioAssay AID1919001 (Molecular Pharmacology Branch, DTP, NCI, 2023).
Where “and” joins values, the source holds several entries; their conditions need not be identical. Equal entries are not always repeated.

Tested on: 699152-130-R-J1-PDC complex spheroid growth
Assay: Anticancer human tumor 699152-130-R-J1-PDC patient-derived pancreatic carcinoma cell line growth inhibition [AhR]
Conditions: for viability, T/C: stronger effect = lower value
In short: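 Complex tumor spheroids co-cultured with HUVEC and human MSC stroma; AhR antagonists tested in combination with standard-of-care and investigational agents. Top concentration at or near clinical Cmax (else 10 microM), half-log dilutions; growth expressed as percent test/control.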

[1] = curve of first compound, second compound 0.1 µM
[2] = curve of first compound, second compound 0.316 µM
[3] = curve of first compound, second compound 1 µM
[4] = curve of first compound, second compound 3.16 µM
[5] = curve of first compound, second compound 10 µM
[6] = second compound 0.1 µM, first compound 0.00949 µM
[7] = second compound 0.1 µM, first compound 0.03 µM
[8] = second compound 0.1 µM, first compound 0.0949 µM
[9] = second compound 0.1 µM, first compound 0.3 µM
[10] = second compound 0.1 µM, first compound 0.949 µM
[11] = second compound 0.1 µM, first compound 3 µM
[12] = second compound 0.316 µM, first compound 0.00949 µM
[13] = second compound 0.316 µM, first compound 0.03 µM
[14] = second compound 0.316 µM, first compound 0.0949 µM
[15] = second compound 0.316 µM, first compound 0.3 µM
[16] = second compound 0.316 µM, first compound 0.949 µM
[17] = second compound 0.316 µM, first compound 3 µM
[18] = second compound 1 µM, first compound 0.00949 µM
[19] = second compound 1 µM, first compound 0.03 µM
[20] = second compound 1 µM, first compound 0.0949 µM
[21] = second compound 1 µM, first compound 0.3 µM
[22] = second compound 1 µM, first compound 0.949 µM
[23] = second compound 1 µM, first compound 3 µM
[24] = second compound 3.16 µM, first compound 0.00949 µM
[25] = second compound 3.16 µM, first compound 0.03 µM
[26] = second compound 3.16 µM, first compound 0.0949 µM
[27] = second compound 3.16 µM, first compound 0.3 µM
[28] = second compound 3.16 µM, first compound 0.949 µM
[29] = second compound 3.16 µM, first compound 3 µM
[30] = second compound 10 µM, first compound 0.00949 µM
[31] = second compound 10 µM, first compound 0.03 µM
[32] = second compound 10 µM, first compound 0.0949 µM
[33] = second compound 10 µM, first compound 0.3 µM
[34] = second compound 10 µM, first compound 0.949 µM
[35] = second compound 10 µM, first compound 3 µM
[36] = second compound 0.1 µM, first compound 0.0316 µM
[37] = second compound 0.1 µM, first compound 0.1 µM
[38] = second compound 0.1 µM, first compound 0.316 µM
[39] = second compound 0.1 µM, first compound 1 µM
[40] = second compound 0.1 µM, first compound 3.16 µM
[41] = second compound 0.1 µM, first compound 10 µM
[42] = second compound 0.316 µM, first compound 0.0316 µM
[43] = second compound 0.316 µM, first compound 0.1 µM
[44] = second compound 0.316 µM, first compound 0.316 µM
[45] = second compound 0.316 µM, first compound 1 µM
[46] = second compound 0.316 µM, first compound 3.16 µM
[47] = second compound 0.316 µM, first compound 10 µM
[48] = second compound 1 µM, first compound 0.0316 µM
[49] = second compound 1 µM, first compound 0.1 µM
[50] = second compound 1 µM, first compound 0.316 µM
[51] = second compound 1 µM, first compound 1 µM
[52] = second compound 1 µM, first compound 3.16 µM
[53] = second compound 1 µM, first compound 10 µM
[54] = second compound 3.16 µM, first compound 0.0316 µM
[55] = second compound 3.16 µM, first compound 0.1 µM
[56] = second compound 3.16 µM, first compound 0.316 µM
[57] = second compound 3.16 µM, first compound 1 µM
[58] = second compound 3.16 µM, first compound 3.16 µM
[59] = second compound 3.16 µM, first compound 10 µM
[60] = second compound 10 µM, first compound 0.0316 µM
[61] = second compound 10 µM, first compound 0.1 µM
[62] = second compound 10 µM, first compound 0.316 µM
[63] = second compound 10 µM, first compound 1 µM
[64] = second compound 10 µM, first compound 3.16 µM
[65] = second compound 10 µM, first compound 10 µM
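Further: compound exposure lasted 7 days after spheroids had grown for 3 days.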

Question: What does the source list for `O=C(C=Cn1cnc(-c2cc(C(F)(F)F)cc(C(F)(F)F)c2)n1)NNc1cnccn1` + CC(CO)NC(=O)c1cc(-c2ccc(Cl)cc2)nn(-c2cnn(C)c2)c1=O?
Answer: IC50 [1]: > 3 µM; IC50 [2]: > 3 µM; IC50 [3]: > 3 µM; IC50 [4]: > 3 µM; IC50 [5]: > 3 µM; viability, T/C [6]: 87.8%; viability, T/C [7]: 98.4%; viability, T/C [8]: 82.1%; viability, T/C [9]: 74.3%; viability, T/C [10]: 82.5%; viability, T/C [11]: 83.2%; viability, T/C [12]: 90.2%; viability, T/C [13]: 82.5%; viability, T/C [14]: 76.7%; viability, T/C [15]: 87.3%; viability, T/C [16]: 87.5%; viability, T/C [17]: 70.5%; viability, T/C [18]: 88.8%; viability, T/C [19]: 83.9%; viability, T/C [20]: 75.5%; viability, T/C [21]: 74%; viability, T/C [22]: 82.6%; viability, T/C [23]: 79%; viability, T/C [24]: 92.1%; viability, T/C [25]: 88%; viability, T/C [26]: 87%; viability, T/C [27]: 71.8%; viability, T/C [28]: 71.2%; viability, T/C [29]: 75.4%; viability, T/C [30]: 99%; viability, T/C [31]: 82.1%; viability, T/C [32]: 68.7%; viability, T/C [33]: 72.4%; viability, T/C [34]: 82.3%; viability, T/C [35]: 73.4%

Question: What does the source list for `O=C(C=Cc1cccc(S(=O)(=O)Nc2ccccc2)c1)NO` + CC(CO)NC(=O)c1cc(-c2ccc(Cl)cc2)nn(-c2cnn(C)c2)c1=O?
Answer: IC50 [1]: > 10 µM; IC50 [2]: > 10 µM; IC50 [3]: > 10 µM; IC50 [4]: > 10 µM; IC50 [5]: > 10 µM; viability, T/C [36]: 102%; viability, T/C [37]: 102%; viability, T/C [38]: 111%; viability, T/C [39]: 112%; viability, T/C [40]: 96.8%; viability, T/C [41]: 79.1%; viability, T/C [42]: 92.8%; viability, T/C [43]: 107%; viability, T/C [44]: 111%; viability, T/C [45]: 106%; viability, T/C [46]: 102%; viability, T/C [47]: 76.2%; viability, T/C [48]: 90.2%; viability, T/C [49]: 96.8%; viability, T/C [50]: 104%; viability, T/C [51]: 101%; viability, T/C [52]: 94.3%; viability, T/C [53]: 82.6%; viability, T/C [54]: 84.2%; viability, T/C [55]: 83.8%; viability, T/C [56]: 93.9%; viability, T/C [57]: 95.4%; viability, T/C [58]: 84%; viability, T/C [59]: 83.9%; viability, T/C [60]: 85%; viability, T/C [61]: 95.4%; viability, T/C [62]: 81.7%; viability, T/C [63]: 89.4%; viability, T/C [64]: 90.5%; viability, T/C [65]: 79.4%

Question: For `O=C(c1cc(Cc2n[nH]c(=O)c3ccccc23)ccc1F)N1CCN(C(=O)C2CC2)CC1` + Cc1ccccc1N=Nc1ccc(NC(=O)c2ccnn2C)c(C)c1, which IC50 [1] is on record?
Answer: The IC50 was > 10 µM.

Question: And the IC50 [2]?
Answer: The IC50 was > 10 µM.

Question: What about the IC50 [3] of the same compound?
Answer: Its IC50 is > 10 µM.

Question: And the IC50 [4]?
Answer: The IC50 was > 10 µM.

Question: What about the IC50 [5] of the same compound?
Answer: The IC50 was > 10 µM.

Question: And the viability, T/C [36]?
Answer: The viability, T/C was 90.3%.

Question: And the viability, T/C [37]?
Answer: Its viability, T/C is 92.8%.

Question: What about the viability, T/C [38] of the same compound?
Answer: Its viability, T/C is 109%.

Question: What about the viability, T/C [39] of the same compound?
Answer: Its viability, T/C is 101%.

Question: And the viability, T/C [40]?
Answer: Its viability, T/C is 97.2%.

Question: And the viability, T/C [41]?
Answer: Its viability, T/C is 78.5%.

Question: What about the viability, T/C [42] of the same compound?
Answer: Its viability, T/C is 89.6%.

Question: What about the viability, T/C [43] of the same compound?
Answer: The viability, T/C was 84.2%.

Question: What about the viability, T/C [44] of the same compound?
Answer: Its viability, T/C is 109%.

Question: What about the viability, T/C [45] of the same compound?
Answer: Its viability, T/C is 90%.

Question: And the viability, T/C [46]?
Answer: Its viability, T/C is 83.5%.

Question: And the viability, T/C [47]?
Answer: The viability, T/C was 85.2%.

Question: And the viability, T/C [48]?
Answer: Its viability, T/C is 106%.

Question: What about the viability, T/C [49] of the same compound?
Answer: Its viability, T/C is 105%.

Question: And the viability, T/C [50]?
Answer: The viability, T/C was 90.4%.

Question: And the viability, T/C [51]?
Answer: The viability, T/C was 93.8%.

Question: And the viability, T/C [52]?
Answer: Its viability, T/C is 88.6%.

Question: And the viability, T/C [53]?
Answer: The viability, T/C was 85.5%.

Question: What about the viability, T/C [54] of the same compound?
Answer: Its viability, T/C is 114%.

Question: And the viability, T/C [55]?
Answer: Its viability, T/C is 99.3%.

Question: And the viability, T/C [56]?
Answer: Its viability, T/C is 104%.

Question: And the viability, T/C [57]?
Answer: Its viability, T/C is 94.1%.

Question: And the viability, T/C [58]?
Answer: The viability, T/C was 81.1%.

Question: And the viability, T/C [59]?
Answer: Its viability, T/C is 83.1%.

Question: What about the viability, T/C [60] of the same compound?
Answer: The viability, T/C was 123%.

Question: What about the viability, T/C [61] of the same compound?
Answer: The viability, T/C was 121%.

Question: What about the viability, T/C [62] of the same compound?
Answer: The viability, T/C was 109%.

Question: What about the viability, T/C [63] of the same compound?
Answer: Its viability, T/C is 89.3%.

Question: What about the viability, T/C [64] of the same compound?
Answer: The viability, T/C was 94%.

Question: And the viability, T/C [65]?
Answer: The viability, T/C was 85.7%.

Question: With `CCc1c2c(nc3ccc(O)cc13)-c1cc3c(c(=O)n1C2)COC(=O)[C@]3(O)CC` as the compound, how does the viability, T/C (compound 0.000949 µM) read?
Answer: The viability, T/C was 85.1% and 90.1% and 88.5%.

Question: What about the viability, T/C (compound 0.003 µM) of the same compound?
Answer: The viability, T/C was 86.8% and 87.7% and 95.1%.

Question: What about the viability, T/C (compound 0.00949 µM) of the same compound?
Answer: Its viability, T/C is 66.3% and 61.5% and 59.9%.

Question: And the viability, T/C (compound 0.03 µM)?
Answer: Its viability, T/C is 55.8% and 44.3% and 57.9%.

Question: And the viability, T/C (compound 0.0949 µM)?
Answer: Its viability, T/C is 49% and 43.6% and 52%.

Question: And the viability, T/C (compound 0.3 µM)?
Answer: The viability, T/C was 33.9% and 33.8% and 38%.

Question: And the IC50 (curve of compound)?
Answer: The IC50 was 0.0604 µM and 0.02 µM and 0.0277 µM.

Question: Which results are given for `CCN(c1cc(-c2ccc(CN3CCOCC3)cc2)cc(C(=O)NCc2c(C)cc(C)[nH]c2=O)c1C)C1CCOCC1` + Cc1ccccc1N=Nc1ccc(NC(=O)c2ccnn2C)c(C)c1?
Answer: IC50 [1]: > 3 µM; IC50 [2]: > 3 µM; IC50 [3]: > 3 µM; IC50 [4]: > 3 µM; IC50 [5]: > 3 µM; viability, T/C [6]: 111%; viability, T/C [7]: 113%; viability, T/C [8]: 108%; viability, T/C [9]: 104%; viability, T/C [10]: 109%; viability, T/C [11]: 104%; viability, T/C [12]: 91.2%; viability, T/C [13]: 95.6%; viability, T/C [14]: 102%; viability, T/C [15]: 105%; viability, T/C [16]: 109%; viability, T/C [17]: 114%; viability, T/C [18]: 118%; viability, T/C [19]: 105%; viability, T/C [20]: 109%; viability, T/C [21]: 109%; viability, T/C [22]: 90.8%; viability, T/C [23]: 118%; viability, T/C [24]: 97.1%; viability, T/C [25]: 104%; viability, T/C [26]: 108%; viability, T/C [27]: 98.7%; viability, T/C [28]: 99.7%; viability, T/C [29]: 101%; viability, T/C [30]: 113%; viability, T/C [31]: 113%; viability, T/C [32]: 118%; viability, T/C [33]: 124%; viability, T/C [34]: 127%; viability, T/C [35]: 113%
